Patent US20250018048A1, “FLUCONAZOLE-COX INHIBITOR HYBRIDS: A DUAL-ACTING CLASS OF ANTIFUNGAL AZOLES” (Ramot at Tel-Aviv University Ltd., priority 2022, published 2025)
≈ marks a conversion by molar mass, not a printed value.

Experiments:
Format in all cases: cell-based
C. tropicalis 660 = test: MIC80 broth double-dilution assay; conditions: YPAD medium, 30° C., 24 h
Description: (§1) The antifungal activities of the 24 azole-COX inhibitor hybrids were evaluated against a panel of 16 representative strains of different species of the genus Candida. Candida species cause both superficial and systemic infections. The panel included strains of C. albicans, C. glabrata, C. parapsilosis, C. tropicalis, C. guilliermondii, C. dubliniensis, and C. auris (Table S2). To evaluate antifungal activity, the minimal inhibitory concentration 80% (MIC80) values were determined, which were defined as the lowest drug concentrations with turbidity (measured at OD600) less than or equal to that of specific 1:5 dilutions of the growth control. As controls, FLC and VOR, were tested.
(§2) MIC80 values were determined using the broth microdilution method over a concentration range of 0.003-64 μg/mL. Orange circles represent C. albicans strains, yellow circles represent C. glabrata strains, and green circles represent C. parapsilosis, C. tropicalis, C. dubliniensis and C. auris. Cells were grown in YPAD medium at 30° C. (For C. auris strains 37° C.) 24 h. Each concentration was tested in triplicate, and results were confirmed in at least two independent experiments.
(§3) C. albicans, C. glabrata, C. parapsilosis, C. guilliermondii, C. tropicalis, and C. dubliniensis MICs were determined using CLSI M27-A3 guidelines with minor modifications. Starter cultures were streaked from glycerol stock onto YPAD agar plates and grown for 24 h at 30° C. Colonies were suspended in 1 mL PBS and diluted to 1×10^−3 OD600 and then diluted 1:100 into fresh medium. Hybrids dissolved in DMSO were added to YPAD broth (32 μL stock solution in 1218 μL of YPAD broth), and serial double dilutions of hybrids in YPAD were prepared in flat-bottomed 96-well microplates (Corning) to enable testing of concentrations ranging from 64 μg/mL to 0.003 μg/mL. Control wells with yeast cells but no drug and blank wells containing only YPAD were prepared. An equal volume (100 μL) of yeast suspensions in YPAD broth was added to each well with the exceptions of the blank wells. MIC values (Tables S4-S6) were determined after 24 h at 30° C. by measuring the OD600 using a plate reader (Infinite M200 PRO, Tecan). MIC values were defined as the point at which the OD600 was reduced by >80% compared to the no-drug wells. Each concentration was tested in triplicate, and results were confirmed by two independent sets of experiments. FLC and VOR were used as control drugs.

C. albicans ATCC 90028 = test: MIC80 broth double-dilution assay; conditions: YPAD medium, 30° C., 24 h
Description: as §1, §2, §3

C. albicans P-87 = test: MIC80 broth double-dilution assay; conditions: YPAD medium, 30° C., 24 h
Description: as §1, §2, §3

[1] = system: C. parapsilosis ATCC 22019; test: MIC80 broth double-dilution assay; conditions: YPAD medium, 30° C., 24 h
Description: as §1, §2, §3

C. albicans ATCC 24433 = test: MIC80 broth double-dilution assay; conditions: YPAD medium, 30° C., 24 h
Description: as §1, §2, §3

C. dubliniensis T-99 = test: MIC80 broth double-dilution assay; conditions: YPAD medium, 30° C., 24 h
Description: as §1, §2, §3

C. albicans SC5314 = test: MIC80 broth double-dilution assay; conditions: YPAD medium, 30° C., 24 h
Description: as §1, §2, §3

C. albicans SN152 = test: MIC80 broth double-dilution assay; conditions: YPAD medium, 30° C., 24 h; parent strain of the erg11ΔΔ/erg3ΔΔ mutant
Description: as §1, §2
(§4) The clinically used FLC and VOR act primarily by preventing ergosterol biosynthesis via inhibition of CYP51. Analysis was done to determine whether fungal growth inhibition by the hybrids required the presence of the ERG11 gene that encodes for CYP51. The antifungal activities of hybrids 1 and 5 and of FLC and VOR were determined against an erg11ΔΔ/erg3ΔΔ mutant C. albicans strain and against C. albicans SN152 from which this double knockout strain was derived (Table S2). […] Yeast growth was followed at OD600 over 48 h in 96-well plates containing serial double dilutions of the tested hybrids.
as §3

[2] = system: C. albicans 742 (erg11ΔΔ/erg3ΔΔ mutant C. albicans strain); test: MIC80 broth double-dilution assay, strain lacking CYP51; conditions: YPAD medium, 30° C., 24 h; erg11ΔΔ/erg3ΔΔ mutant lacking CYP51
Description: as §1, §4, §3

C. auris ATCC MYA5001 = test: MIC broth double-dilution assay with MTT (CLSI M27-A3); conditions: YPAD medium, 37° C., 24 h, growth score 0 or 1
Description: (§5) Minimal inhibitory concentration broth double-dilution assay: C. auris minimal inhibitory concentrations (MICs) were determined using CLSI M27-A3 guidelines with minor modifications. Starter cultures were streaked from glycerol stock onto YPAD agar plates and grown for 24 h at 37° C. Colonies were suspended in 1 mL PBS and diluted to 1×10^−3 optical density at 600 nm (OD600) and then diluted 1:100 into fresh medium. hybrids dissolved in DMSO were added to YPAD broth (32 μL stock solution in 1218 μL of YPAD broth), and serial double dilutions of hybrids in YPAD were prepared in flat-bottomed 96-well microplates (Corning) to enable testing of concentrations ranging from 64 μg/mL to 0.007 μg/mL. Control wells with yeast cells but no drug and blank wells containing only YPAD were prepared. An equal volume (100 μL) of yeast suspension in YPAD broth was added to each well with the exceptions of the blank wells. After incubation for 24 h at 37° C., MTT (50 μL of a 1 mg/mL solution in ddH2O) was added to each well followed by additional incubation at 37° C. for 2 h. MIC values (Table S3) were defined as the lowest concentration of an antifungal agent that caused a specified reduction in visible growth as per the CLSI M27-A3 protocol. The magnitude of reduction in visible growth was assessed using the following numerical scale: 0, optically clear; 1, slightly hazy; 2, prominent decrease (˜50%) in visible growth; 3, slight reduction in visible growth; and 4, no reduction in visible growth. The MIC was defined based on reduction in growth to 0 or 1. Results were confirmed in two independent experiments, and each concentration was tested in triplicate. FLC and VOR were used as control drugs.

C. auris ATCC MYA5002 = test: as above; conditions: YPAD medium, 37° C., 24 h, growth score 0 or 1
Description: as §5

C. guilliermondii T-47 = test: MIC80 broth double-dilution assay; conditions: YPAD medium, 30° C., 24 h
Description: as §1, §3

| SMILES | MIC80 against C. tropicalis 660 (C. tropicalis 660) [µg/mL] | MIC80 against C. albicans 90028 (C. albicans ATCC 90028) [µg/mL] | MIC80 against C. albicans P-87 (C. albicans P-87) [µg/mL] | MIC80 against C. parapsilosis 22019 [1] [µg/mL] | MIC80 against C. albicans 24433 (C. albicans ATCC 24433) [µg/mL] | MIC80 against C. dubliniensis T-99 (C. dubliniensis T-99) [µg/mL] | MIC80 against C. albicans SC5314 (C. albicans SC5314) [µg/mL] | MIC80 against C. albicans SN152 (C. albicans SN152) [µg/mL] | MIC80 against C. albicans 742 [2] [µg/mL] | MIC against C. auris 5001 (C. auris ATCC MYA5001) [µg/mL] | MIC against C. auris 5002 (C. auris ATCC MYA5002) [µg/mL] | MIC80 against C. guilliermondii T-47 (C. guilliermondii T-47) [µg/mL] |
| --- | --- | --- | --- | --- | --- | --- | --- | --- | --- | --- | --- | --- |
| O=C(Cc1ccccc1Nc1c(Cl)cccc1Cl)NC[C@](O)(Cn1cncn1)c1ccc(F)cc1F [Hybrid 23] | >64 | 1 (≈ 1.88 µM) | 1 (≈ 1.88 µM) | 0.5 (≈ 0.939 µM) | 1 (≈ 1.88 µM) | 4 (≈ 7.51 µM) | 1 (≈ 1.88 µM) | 1 (≈ 1.88 µM) | >64 | 2 (≈ 3.76 µM) | 64 (≈ 120 µM) | 8 (≈ 15 µM) |
| O=C(NC[C@](O)(Cn1cncn1)c1ccc(F)cc1F)c1cc(-c2ccc(F)cc2F)ccc1O [Hybrid 19] | 0.12 (≈ 0.247 µM) | 0.12 (≈ 0.247 µM) | 0.03 (≈ 0.0617 µM) | 0.06 (≈ 0.123 µM) | 0.06 (≈ 0.123 µM) | 2 (≈ 4.11 µM) | 0.06 (≈ 0.123 µM) | 0.03 (≈ 0.0617 µM) | 64 (≈ 132 µM) | 0.12 (≈ 0.247 µM) | 2 (≈ 4.11 µM) | 2 (≈ 4.11 µM) |
| O=C(NC[C@](O)(Cn1cncn1)c1ccc(F)cc1F)c1ccccc1O [Hybrid 21] | 0.12 (≈ 0.321 µM) | 0.25 (≈ 0.668 µM) | 0.12 (≈ 0.321 µM) | 1 (≈ 2.67 µM) | 0.12 (≈ 0.321 µM) | 2 (≈ 5.34 µM) | 0.12 (≈ 0.321 µM) | 0.12 (≈ 0.321 µM) | >64 | 0.25 (≈ 0.668 µM) | 8 (≈ 21.4 µM) | 1 (≈ 2.67 µM) |
| O=C(NC[C@](O)(Cn1cncn1)c1ccc(F)cc1F)c1cccnc1Nc1cccc(C(F)(F)F)c1 [Hybrid 17] | 2 (≈ 3.86 µM) | 0.12 (≈ 0.231 µM) | 0.25 (≈ 0.482 µM) | 0.5 (≈ 0.964 µM) | 0.12 (≈ 0.231 µM) | 2 (≈ 3.86 µM) | 0.12 (≈ 0.231 µM) | 0.06 (≈ 0.116 µM) | 16 (≈ 30.9 µM) | 0.25 (≈ 0.482 µM) | 4 (≈ 7.72 µM) | 2 (≈ 3.86 µM) |
| C[C@@H](C(=O)NC[C@@](O)(Cn1cncn1)c1ccc(F)cc1F)c1ccc(-c2ccccc2)c(F)c1 [Hybrid 7] | 64 (≈ 133 µM) | 8 (≈ 16.6 µM) | 4 (≈ 8.32 µM) | 8 (≈ 16.6 µM) | 16 (≈ 33.3 µM) | 0.5 (≈ 1.04 µM) | 4 (≈ 8.32 µM) | 8 (≈ 16.6 µM) | 64 (≈ 133 µM) |  |  | 32 (≈ 66.6 µM) |
| COc1ccc2cc([C@@H](C)C(=O)NC[C@@](O)(Cn3cncn3)c3ccc(F)cc3F)ccc2c1 [Hybrid 11] | 8 (≈ 17.1 µM) | 1 (≈ 2.14 µM) | 1 (≈ 2.14 µM) | 4 (≈ 8.57 µM) | 1 (≈ 2.14 µM) | 8 (≈ 17.1 µM) | 0.5 (≈ 1.07 µM) | 0.5 (≈ 1.07 µM) | >64 |  |  | 8 (≈ 17.1 µM) |
| COc1ccc2cc([C@H](C)C(=O)NC[C@](O)(Cn3cncn3)c3ccc(F)cc3F)ccc2c1 [Hybrid 9] | 2 (≈ 4.29 µM) | 0.25 (≈ 0.536 µM) | 0.25 (≈ 0.536 µM) | 1 (≈ 2.14 µM) | 0.5 (≈ 1.07 µM) | 4 (≈ 8.57 µM) | 0.25 (≈ 0.536 µM) | 0.012 (≈ 0.0257 µM) | 64 (≈ 137 µM) |  |  | 2 (≈ 4.29 µM) |
| O=C(Cc1ccccc1Nc1c(Cl)cccc1Cl)NC[C@@](O)(Cn1cncn1)c1ccc(F)cc1F [Hybrid 24] | >64 | >64 | >64 | >64 | >64 | 2 (≈ 3.76 µM) | >64 | >64 | >64 |  |  | >64 |
